In PMC3878625, “Inhibitory effects of grape skin extract and resveratrol on fatty acid synthase” (BMC Complementary and Alternative Medicine, 2013):
pIC50: −log10 of the molar value.

Biological target: T1, Fatty acid synthase (FAS) (Gallus gallus, UniProt P12276)
T1 construct: gene FASN; FAS purified from chicken liver
Assay: spectrophotometric NADPH oxidation assay ([…] nm) of purified FAS, overall and KR reactions; time-dependent inhibition and Lineweaver-Burk kinetics
Assay type: biochemical

T1 sequence (P12276 2-2512): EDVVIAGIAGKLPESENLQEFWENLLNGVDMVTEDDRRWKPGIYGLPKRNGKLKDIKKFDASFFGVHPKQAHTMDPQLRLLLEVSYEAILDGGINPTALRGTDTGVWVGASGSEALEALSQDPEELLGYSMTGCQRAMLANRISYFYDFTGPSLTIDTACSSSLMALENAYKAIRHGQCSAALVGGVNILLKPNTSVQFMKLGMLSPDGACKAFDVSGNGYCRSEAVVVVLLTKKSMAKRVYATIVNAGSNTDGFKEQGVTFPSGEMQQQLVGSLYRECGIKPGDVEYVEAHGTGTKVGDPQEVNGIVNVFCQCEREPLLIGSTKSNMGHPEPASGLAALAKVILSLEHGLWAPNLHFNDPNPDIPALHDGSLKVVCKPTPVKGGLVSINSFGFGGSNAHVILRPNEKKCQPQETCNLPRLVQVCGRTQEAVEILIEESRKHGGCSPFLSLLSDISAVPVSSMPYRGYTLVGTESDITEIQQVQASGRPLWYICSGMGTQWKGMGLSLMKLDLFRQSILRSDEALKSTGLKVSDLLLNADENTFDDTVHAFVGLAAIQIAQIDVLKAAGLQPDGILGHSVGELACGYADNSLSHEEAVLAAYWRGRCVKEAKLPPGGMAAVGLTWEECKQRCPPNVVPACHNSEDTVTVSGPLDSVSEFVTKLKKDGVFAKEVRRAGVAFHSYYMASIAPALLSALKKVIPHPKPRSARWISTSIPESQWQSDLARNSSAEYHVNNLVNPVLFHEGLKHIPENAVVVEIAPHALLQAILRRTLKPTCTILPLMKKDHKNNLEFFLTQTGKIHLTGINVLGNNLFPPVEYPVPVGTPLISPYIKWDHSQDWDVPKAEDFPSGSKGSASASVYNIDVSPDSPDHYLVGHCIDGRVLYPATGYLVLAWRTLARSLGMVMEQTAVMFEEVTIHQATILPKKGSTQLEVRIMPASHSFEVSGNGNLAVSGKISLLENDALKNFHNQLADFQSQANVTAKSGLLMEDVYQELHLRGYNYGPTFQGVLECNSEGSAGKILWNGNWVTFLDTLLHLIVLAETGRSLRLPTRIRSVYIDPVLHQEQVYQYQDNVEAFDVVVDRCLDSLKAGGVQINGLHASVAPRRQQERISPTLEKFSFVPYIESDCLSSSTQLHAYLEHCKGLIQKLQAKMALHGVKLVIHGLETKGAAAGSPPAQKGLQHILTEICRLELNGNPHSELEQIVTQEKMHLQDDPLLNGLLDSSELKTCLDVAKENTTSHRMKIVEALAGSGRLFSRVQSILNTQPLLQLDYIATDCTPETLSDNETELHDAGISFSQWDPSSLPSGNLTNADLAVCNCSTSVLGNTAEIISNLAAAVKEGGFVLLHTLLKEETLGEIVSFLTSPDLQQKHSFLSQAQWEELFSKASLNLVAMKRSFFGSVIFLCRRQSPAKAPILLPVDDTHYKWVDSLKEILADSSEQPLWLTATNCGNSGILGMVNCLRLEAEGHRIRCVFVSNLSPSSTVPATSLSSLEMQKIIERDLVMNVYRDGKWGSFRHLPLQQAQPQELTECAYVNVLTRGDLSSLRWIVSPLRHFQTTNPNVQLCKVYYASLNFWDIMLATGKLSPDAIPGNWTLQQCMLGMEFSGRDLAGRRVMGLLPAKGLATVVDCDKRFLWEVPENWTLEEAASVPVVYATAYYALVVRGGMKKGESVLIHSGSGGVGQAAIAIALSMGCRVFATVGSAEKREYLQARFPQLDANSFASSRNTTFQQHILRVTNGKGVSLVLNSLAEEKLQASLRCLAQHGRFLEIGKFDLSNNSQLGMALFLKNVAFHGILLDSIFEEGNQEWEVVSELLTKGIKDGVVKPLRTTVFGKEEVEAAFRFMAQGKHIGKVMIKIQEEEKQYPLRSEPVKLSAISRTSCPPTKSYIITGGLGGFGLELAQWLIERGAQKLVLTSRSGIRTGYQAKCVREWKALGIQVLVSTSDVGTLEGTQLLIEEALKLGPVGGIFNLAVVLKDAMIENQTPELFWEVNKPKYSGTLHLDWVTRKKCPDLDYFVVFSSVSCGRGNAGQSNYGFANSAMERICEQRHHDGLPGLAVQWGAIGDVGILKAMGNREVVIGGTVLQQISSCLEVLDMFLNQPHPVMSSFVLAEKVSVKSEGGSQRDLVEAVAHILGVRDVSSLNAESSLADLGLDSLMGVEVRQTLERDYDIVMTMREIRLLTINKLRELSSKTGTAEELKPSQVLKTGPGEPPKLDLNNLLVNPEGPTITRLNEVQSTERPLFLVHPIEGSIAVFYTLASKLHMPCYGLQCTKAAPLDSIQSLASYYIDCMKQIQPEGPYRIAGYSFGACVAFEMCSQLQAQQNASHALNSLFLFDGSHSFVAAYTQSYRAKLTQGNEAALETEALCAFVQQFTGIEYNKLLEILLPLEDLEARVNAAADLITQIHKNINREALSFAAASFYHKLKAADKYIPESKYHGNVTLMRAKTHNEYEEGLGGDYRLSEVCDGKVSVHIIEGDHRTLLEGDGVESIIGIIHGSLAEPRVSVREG

In the case of Oc1ccc(/C=C/c2cc(O)cc(O)c2)cc1 [resveratrol, 3,5,4′-trihydroxystilbene], the pIC50 was 4.31.
